Results: patent US8247211B2, “Glycopeptide antibiotics” (American Cyanamid Company, priority 2001, dated 2012)
In brackets after ≈: the same amount, converted by molar mass.

How the values were obtained:
[1] = Anatomic pathology (heart and kidney histopathology) in mice; assay type: in vivo, CD-1 mice; conditions: 20 mg/kg intravenously daily for 9 days, microscopic histopathology on day 10
In short: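 Juvenile CD-1 mice (20 days old; 5 vehicle, 5 treated) received glycopeptide antibiotic 20 mg/kg i.v. daily for 9 days. Necropsied tissues formalin-fixed, paraffin-embedded, H&E stained and examined microscopically; findings graded slight to severe versus controls.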

Staphylococcus sp. = assay: In vitro antibacterial evaluation: minimum inhibitory concentration (MIC), broth dilution method; assay type: cell-based
In short: (§1)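 Following NCCLS approved standard M7-A2, compounds are serially diluted from 64 to 0.06 μg/mL in Muller-Hinton II […] and inoculated at 5×10^5 CFU/mL; the MIC is the minimum concentration at which growth is inhibited.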

Enterococcus sp. = assay: as above; assay type: cell-based; conditions: 18 hours at 35° C.
In short: as §1

Streptococcus sp. = assay: as above; assay type: cell-based; conditions: 18 hours at 35° C.
In short: as §1

Escherichia coli = assay: as above; assay type: cell-based; conditions: 18 hours at 35° C.
In short: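 NCCLS M7-A2 broth dilution; Muller-Hinton II […]; 5×10^5 CFU/mL; 64-0.06 μg/mL. MIC = lowest concentration with no growth.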

[2] = test system: Staphylococcus aureus-SMITH (GC 4543); assay: Acute lethal infection in mice (ED50); assay type: in vivo; conditions: female CD-1 mice, intraperitoneal challenge, intravenous dose 30 min. after infection, 7 day survival ratios
In short: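 Female CD-1 mice (20 ± 1-2 g) were infected intraperitoneally with enough bacteria, suspended in Trypticase Soy Broth or hog gastric mucin, to kill untreated controls within 24-48 hr. Compound in saline or 5% dextrose was given intravenously 30 min after infection. ED50 came from pooled 7-day survival over 3 tests.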

[3] = assay type: in vivo; conditions: mice, 20 mg/kg intravenously daily for 9 days, serum on day 10
Experimental: 20-day-old CD-1 mice were divided into a vehicle control group (5 mice) and a treatment group (5 mice). Samples of glycopeptide antibiotics were administered at 20 mg/kg intravenously daily for 9 days. Animals were necropsied on day 10 Sera were analyzed for BUN (blood urea nitrogen), creatinine, AST (aspartic aminotransferase), and ALT (alanine aminotransferase) by routine, standard, automated methods using an Hitachi 747 chemistry analyzer.

[4] = broth dilution, inoculum 5×10^5 CFU/mL

## N=C1NCC(C(O)C2NC(=O)C(Cc3ccc(OC4OC(CO)C(OC5OC6COC7(OC6C(O)C5O)C5CC6CC(C5)CC7C6)C(O)C4O)cc3)NC(=O)C(Cc3ccccc3)NC(=O)CNC(=O)C(CO)NC(=O)C(C(O)C3CNC(=N)N3C3OC(CO)C(O)C(O)C3O)NC2=O)N1 (centres unmarked) [Example 220]
[1]
  Anatomical Pathology (Day 10), Heart: 0
  Anatomical Pathology (Day 10), Kidney: +++
Staphylococcus sp.; strain ATCC 29213
  MIC Staphylococcus aureus (ATCC 29213): 0.5 µg/mL (≈ 0.354 µM)
Staphylococcus sp.; strain GC 1131
  MIC Staphylococcus aureus (GC 1131): 1 µg/mL (≈ 0.707 µM)
Staphylococcus sp.; strain GC 3051
  MIC Staphylococcus aureus (GC 3051): 1 µg/mL (≈ 0.707 µM)
Staphylococcus sp.; strain GC 3053
  MIC Staphylococcus aureus (GC 3053): 1 µg/mL (≈ 0.707 µM)
Staphylococcus sp.; strain GC 4541
  MIC Staphylococcus aureus (GC 4541): 1 µg/mL (≈ 0.707 µM)
Staphylococcus sp.; strain GC 4542
  MIC Staphylococcus aureus (GC 4542): 0.5 µg/mL (≈ 0.354 µM)
Staphylococcus sp.; strain GC 4543
  MIC Staphylococcus aureus-SMITH (GC 4543): 1 µg/mL (≈ 0.707 µM)
Staphylococcus sp.; strain GC 4544
  MIC Staphylococcus aureus (GC 4544): 1 µg/mL (≈ 0.707 µM)
Staphylococcus sp.; strain GC 4545
  MIC Staphylococcus aureus (GC 4545): 0.5 µg/mL (≈ 0.354 µM)
Staphylococcus sp.; strain GC 4546
  MIC Staphylococcus haemolyticus (GC 4546): 0.25 µg/mL (≈ 0.177 µM)
Staphylococcus sp.; strain GC 4547
  MIC Coagulase Negative Staphylococcus (GC 4547): 0.5 µg/mL (≈ 0.354 µM)
Staphylococcus sp.; strain GC 4548
  MIC Coagulase Negative Staphylococcus (GC 4548): 0.25 µg/mL (≈ 0.177 µM)
Staphylococcus sp.; strain GC 4549
  MIC Coagulase Negative Staphylococcus (GC 4549): 0.25 µg/mL (≈ 0.177 µM)
Staphylococcus sp.; strain GC 4551
  MIC Coagulase Negative Staphylococcus (GC 4551): 0.5 µg/mL (≈ 0.354 µM)
Enterococcus sp.; Enterococcus avium (GC 4558)
  MIC Enterococcus avium (GC 4558): 2 µg/mL (≈ 1.41 µM)
Enterococcus sp.; Enterococcus faecalis (ATCC 29212)
  MIC Enterococcus faecalis (ATCC 29212): 2 µg/mL (≈ 1.41 µM)
Enterococcus sp.; Enterococcus faecalis (GC 2242)
  MIC Enterococcus faecalis (GC 2242): 1 µg/mL (≈ 0.707 µM)
Enterococcus sp.; Enterococcus faecalis (GC 2691)
  MIC Enterococcus faecalis (GC 2691): 2 µg/mL (≈ 1.41 µM)
Enterococcus sp.; Enterococcus faecalis (GC 3059)
  MIC Enterococcus faecalis (GC 3059): 2 µg/mL (≈ 1.41 µM)
Enterococcus sp.; Enterococcus faecalis (GC 4552)
  MIC Enterococcus faecalis (GC 4552): 2 µg/mL (≈ 1.41 µM)
Enterococcus sp.; Enterococcus faecalis (GC 4553)
  MIC Enterococcus faecalis (GC 4553): 1 µg/mL (≈ 0.707 µM)
Enterococcus sp.; Enterococcus faecalis (GC 4554)
  MIC Enterococcus faecalis (GC 4554): 2 µg/mL (≈ 1.41 µM)
Enterococcus sp.; Enterococcus faecalis (GC 6189)
  MIC Enterococcus faecalis (GC 6189): 1 µg/mL (≈ 0.707 µM)
Enterococcus sp.; Enterococcus faecium (GC 2243)
  MIC Enterococcus faecium (GC 2243): 1 µg/mL (≈ 0.707 µM)
Enterococcus sp.; Enterococcus faecium (GC 4556)
  MIC Enterococcus faecium (GC 4556): 1 µg/mL (≈ 0.707 µM)
Enterococcus sp.; Enterococcus faecium (GC 4557)
  MIC Enterococcus faecium (GC 4557): 1 µg/mL (≈ 0.707 µM)
Enterococcus sp.; [4]
  MIC Enterococcus avium (GC 4558): 2 µg/mL (≈ 1.41 µM)
  MIC Enterococcus faecalis (ATCC 29212): 2 µg/mL (≈ 1.41 µM)
  MIC Enterococcus faecalis (GC 2242): 1 µg/mL (≈ 0.707 µM)
  MIC Enterococcus faecalis (GC 2691): 2 µg/mL (≈ 1.41 µM)
  MIC Enterococcus faecalis (GC 3059): 2 µg/mL (≈ 1.41 µM)
  MIC Enterococcus faecalis (GC 4552): 2 µg/mL (≈ 1.41 µM)
  MIC Enterococcus faecalis (GC 4553): 1 µg/mL (≈ 0.707 µM)
  MIC Enterococcus faecalis (GC 4554): 2 µg/mL (≈ 1.41 µM)
  MIC Enterococcus faecalis (GC 6189): 1 µg/mL (≈ 0.707 µM)
  MIC Enterococcus faecium (GC 2243): 1 µg/mL (≈ 0.707 µM)
  MIC Enterococcus faecium (GC 4556): 1 µg/mL (≈ 0.707 µM)
  MIC Enterococcus faecium (GC 4557): 1 µg/mL (≈ 0.707 µM)
Streptococcus sp.; Streptococcus agalactiae (GC 4564)
  MIC Streptococcus agalactiae (GC 4564): <0.06 µg/mL
Streptococcus sp.; Streptococcus pneumoniae (ATCC 6301)
  MIC Streptococcus pneumoniae (ATCC 6301): <0.06 µg/mL
Streptococcus sp.; Streptococcus pneumoniae (GC 1894)
  MIC Streptococcus pneumoniae (GC 1894): <0.06 µg/mL
Streptococcus sp.; Streptococcus pneumoniae (GC 4565)
  MIC Streptococcus pneumoniae (GC 4565): <0.06 µg/mL
Streptococcus sp.; Streptococcus pyogenes (GC 4563)
  MIC Streptococcus pyogenes (GC 4563): <0.06 µg/mL
Streptococcus sp.; [4]
  MIC Streptococcus agalactiae (GC 4564): <0.06 µg/mL
  MIC Streptococcus pneumoniae (ATCC 6301): <0.06 µg/mL
  MIC Streptococcus pneumoniae (GC 1894): <0.06 µg/mL
  MIC Streptococcus pneumoniae (GC 4565): <0.06 µg/mL
  MIC Streptococcus pyogenes (GC 4563): <0.06 µg/mL
Escherichia coli; Escherichia coli (ATCC 25922)
  MIC Escherichia coli (ATCC 25922): 32 µg/mL (≈ 22.6 µM)
Escherichia coli; Escherichia coli (GC 4559)
  MIC Escherichia coli (GC 4559): 16 µg/mL (≈ 11.3 µM)
Escherichia coli; Escherichia coli (GC 4560)
  MIC Escherichia coli (GC 4560): 0.5 µg/mL (≈ 0.354 µM)
[2]
  median effective dose (ED50), Staphylococcus aureus-SMITH (GC 4543): 0.19 mg/kg
[3]
  Clinical Chemistry (Day 10) % of Control, BUN: 149%
  Clinical Chemistry (Day 10) % of Control, Creatinine: 121%
